# Target: enkephalinase
# Experiment: in vitro assay of the enkephalinase-inhibitory activity (J. Pharmac. Exp. Ther., 1987, 243, 666)
# Assay type: biochemical
# Details: (E) isomer, read-out: (E) Isomer IC50
# Procedure: An assay of the enkephalinase-inhibitory activity (J. Pharmac. Exp. Ther., 1987, 243, 666) of the compounds of formulae (Ia) and (Ib) was performed.
row,Compound,IC50 [nM]
1,"CC(CC(=O)O)NC(=O)/C(=C\c1ccccc1)CS (racemic) [Ex 12, 3-(RS)-N-(E)-[1-oxo-2-(mercaptomethyl)-3-phenylpropenyl]aminobutanoic acid]",7
2,CC(CNC(=O)/C(=C\c1ccccc1)CS)C(=O)O (racemic) [Ex 14],10
3,"O=C(O)CCNC(=O)/C(=C\c1ccccc1)CS [Ex 4, N-(E)-[1-oxo-2-(mercaptomethyl)-3-phenylpropenyl]-β-alanine]",2.8
4,"O=C(O)CCCNC(=O)/C(=C\c1ccccc1)CS [Ex 16, 4-N-(E)-[1-oxo-2-(mercaptomethyl)-3-phenylpropenyl]aminobutanoic acid]",6.4
5,"COc1ccc(/C=C(/CS)C(=O)NCCC(=O)O)cc1 [Ex 19, N-(E)-[1-oxo-2-(mercaptomethyl)-3-(4-methoxyphenyl)propenyl]-β-alanin]",2.7
6,"O=C(O)CCNC(=O)/C(=C\c1ccc(C(F)(F)F)cc1)CS [Ex 22, N-(E)-[1-oxo-2-(mercaptomethyl)-3-(4-trifluoromethylphenyl)propenyl]-β-alanine]",12.1
7,"O=C(O)CCNC(=O)/C(=C\c1ccc(-c2ccccc2)cc1)CS [Ex 25, N-(E)-[1-oxo-2-(mercaptomethyl)-3-(4-phenylphenyl)propenyl]-β-alanine]",7.5
8,"CCOc1ccc(/C=C(/CS)C(=O)NCCC(=O)O)cc1 [Ex 28, N-(E)-[1-oxo-2-(mercaptomethyl)-3-(4-ethoxyphenyl)propenyl]-β-alanine]",11.8
9,"O=C(O)CCNC(=O)/C(=C\c1cc(F)cc(F)c1)CS [Ex 33, N-(E)-[1-oxo-2-(mercaptomethyl)-3-(3,5-difluorophenyl)propenyl]-β-alanine]",5.9
10,"O=C(O)CCNC(=O)/C(=C\c1ccc(Oc2ccccc2)cc1)CS [Ex 41, N-(E)-[1-oxo-2-(mercaptomethyl)-3-(4-phenoxyphenyl)propenyl]-β-alanine]",5.8
11,"CC(=O)SC/C(=C/c1ccc2c(c1)OCO2)C(=O)NCCC(=O)OCc1ccccc1 [Ex 43, benzyl N-(E)-[1-oxo-2-(acetylthiomethyl)-3-(3,4-methylenedioxyphenyl)propenyl]-β-alaninate]",19

# Same assay, conditions: (Z) isomer, read-out: (Z) Isomer IC50
row,Compound,IC50 [nM]
1,"O=C(O)CCNC(=O)/C(=C/c1ccccc1)CS [Ex 38, N-(Z)-[1-oxo-2-(mercaptomethyl)-3-phenylpropenyl]-β-alanine]",171

# Reference: patent US5646313A, “Amino acid derivatives, processes for their preparation and their therapeutic application” (Societe Civile Bioprojet, priority 1993, dated 1997)
